Measured values reported in article PMC10714390, “Quinoline Compounds Targeting the c-Ring of ATP Synthase Inhibit Drug-Resistant Pseudomonas aeruginosa” (ACS Infectious Diseases, 2023).
Several values for one entry are separate records, joined by “and”; a condition that tells them apart may be missing. Equal entries are not always repeated.

Experiments:
Solubility in DMSO = format: physicochemical
[1] = test system: drug-resistant P. aeruginosa BAA 2109; experiment: Antimicrobial susceptibility (broth microdilution), BAA 2109; format: cell-based, Pseudomonas aeruginosa; settings: for MIC: Pseudomonas aeruginosa, BAA2109, read-out: antibacterial activity (MIC) BAA 2109; for antibacterial activity in words, BAA 2109: summary of Table 1
Method: (§1) The following are general steps, unless otherwise noted. All steps were completed using aseptic techniques. All media and glassware were sterilized via an autoclave at 121 °C for 60 min. All agitation occurred at 160 rpm in a temperature-controlled console shaker (Excella E25) at 37 °C. Full-strength tryptic soy broth (TSB) was made by dissolving 30 g of BD Bacto TSB powder in 1 L of deionized water. Purchased and acquired bacterial strains used were E. coli (ATCC 25922), P. aeruginosa (ATCC 9027), drug-resistant P. aeruginosa from ATCC Panel MP-23 (BAA 2108, BAA 2109, BAA 2110), and P. aeruginosa efflux knockout GKCW120 (PΔ6)[6] provided by Zgurskaya and co-workers at the University of Oklahoma.
(§2) Susceptibility testing was performed in biological triplicate using the broth microdilution method as outlined by the Clinical and Laboratory Standards Institute. […] Briefly, to each well, 1 μL of compound in DMSO, 89 μL of TSB, and 10 μL of bacterial inoculum, grown from a single colony in 10 mL of TSB for 4–6 h, were added. After incubation for 12–15 h at 37 °C, absorbance at 590 nm was read on a Biotek Synergy HTX Multimode plate reader. Data were processed by background subtracting the media absorbance and then normalizing the data to full bacterial growth with the vehicle only. MIC is defined as the lowest concentration of antibiotic or antibiotic/adjuvant combination that achieves ≥85% growth inhibition, which corresponds to no visible growth.

[2] = test system: P. aeruginosa (ATCC 9027); experiment: Antimicrobial susceptibility (broth microdilution), PA 9027; format: cell-based, Pseudomonas aeruginosa; settings: for MIC: Pseudomonas aeruginosa, ATCC9027, read-out: antibacterial activity (MIC) PA 9027; for antibacterial activity in words, PA 9027: summary of Table 1
Method: as §1, §2
Initial antibacterial activity screen of compounds 4, 5, and S1-S6
Compounds 4, 5, and S1-S6 were screened for initial antibiotic activity against a susceptible laboratory strain of EC (designated EC 25922), and non-virulent, biofilm forming strain of PA (designated PA 9027), and PD6 (efflux knockout strain6) at 128 µg/mL in DMSO. Sterilization and Antimicrobial Susceptibility Assay procedures utilized were the same as described in the methods.
Table S1. Antibacterial activity screening results for compounds 4, 5, and S1-S6 at 128 µg/mL
Table S1. Antibacterial activity screening results for compounds 4, 5, and S1-S6 at 128 µg/mL.

[3] = test system: PA electron transport chain; experiment: Electron transport activity (NADH-driven H+ pumping, ACMA quenching), PA vesicles; format: biochemical, Pseudomonas aeruginosa; settings: for inhibition of PA ETC-driven H+ pumping, in words: 0-64 µg/mL, Figure S2; for Inhibition of the PA electron transport chain IC50: PA vesicles
Method: Determination of electron transport activity. In an opaque black 96-well plate, inverted membrane
vesicles from PA or E. coli DK8 pASH20 were added to HMK buffer containing 0.3 µg/mL 9-amino-6-chloro-
2-methoxyacridine (ACMA) and 0-64 µg/mL test compound in DMSO. After measurement of baseline
ACMA fluorescence for 60 s, redox-driven H+ pumping was initiated by addition of NADH to 0.8 mM, and
fluorescence quenching was monitored for 120 s before addition of nigericin to 0.5 µg/mL. Relative
activity is reported as the minimum fluorescence value normalized to the maximum fluorescence value
following addition of nigericin. […]

[4] = molecular target: T1, PA ATP synthase expressed in E. coli DK8/pASH20 (Pseudomonas aeruginosa, UniProt Q9HT15); experiment: NADH-driven ATP synthesis inhibition, DK8/pASH20 membrane vesicles; format: biochemical; settings: for IC50: ATP synthesis IC50, DK8/pASH20 vesicles, wild-type PA ATP synthase in E. coli DK8, NADH-driven, end point luminescence assay; for Hill coefficient of dose response fit, DK8/pASH20 vesicles: inhibition of ATP synthesis activity
T1 construct: expressed in transfected cells; host or cells: E. coli K-12 DK8 (lacks its own ATP synthase) transformed with pASH20 (pBR322 derivative)
Method: P. aeruginosa (ATCC 9027) was streaked onto a 10% TSB agar plate and incubated at room temperature for 72 h. A single colony was resuspended in 100 μL of H2O, and 5 μL was used as the DNA template for PCR with Q5 polymerase (NEB) and […] each of forward and reverse primers. Primers were complementary to regions flanking the atp operon and included sequences for HindIII and NdeI restriction sites (see the SI for primer sequences). The resulting 6.9 kbp DNA fragment was digested with HindIII and NdeI and ligated into digested vector pBR322 (New England Biolabs). The resultant pASH20(-i) plasmid contains a partial atpI gene. To complete the atpI gene, the HindII-XhoI fragment of pASH20(-i) was replaced with a synthetic fragment with a complete atpI (Twist Bioscience) to yield pASH20. The sequence of the entire operon was verified by Sanger DNA sequencing through the ligation sites. Subunit c mutations were introduced by exchanging the XhoI-BamHI fragment containing atpE with a synthetic fragment containing mutated atpE (Twist Bioscience).
Vesicles were prepared from P. aeruginosa and transformed E. coli cells as previously described.[22] Briefly, cells were grown in LB liquid medium at 37 °C with shaking and harvested by centrifugation after 7 h of growth. Cultures of transformant E. coli included 100 μg/mL ampicillin. Cells were disrupted in TMG buffer (50 mM Tris-HCl, MgCl2, 10% (v/v) glycerol, pH 7.5) using an Avestin B15 homogenizer at 19,000 psi. After unbroken cells and debris were cleared by centrifugation at 9000g, inverted vesicles were collected by centrifugation at 193,000g, resuspended in TMG buffer, and stored at −80 °C. Protein concentrations were determined using a modified Lowry assay.[25]
Continuous ATP synthesis activity of inverted membrane vesicles was measured using a luciferin/luciferase luminescence assay as previously described.[22] Inhibition of ATP synthesis activity by test compounds was determined using an end point assay essentially as previously described.[18],[26] In this assay, the synthesis reaction was initiated by 2.5 mM NADH, proceeded for 10 min, and was stopped with 1% trichloroacetic acid, 2 mM CCCP, and 10 mM EDTA. Samples from each reaction were diluted 500-fold prior to the addition of luciferase since quinoline compounds are known to inhibit luciferase.[27] This dilution was sufficient to minimize inhibition of luciferase (Figure S4). Each replicate set included a positive control containing DMSO with no compound and a negative control containing carbonyl cyanide m-chlorophenyl hydrazone. Luminescence values were corrected for the background by subtracting the negative control and then normalized to the positive control within the same replicate. Dose–response curves were fit using eq 1, where activity is the relative ATP synthesis activity, [I] is the concentration of inhibitor in μg/mL, and n is the Hill coefficient. [drawing 1] 1

[5] = test system: drug-resistant P. aeruginosa BAA 2108; experiment: Antimicrobial susceptibility (broth microdilution), BAA 2108; format: cell-based, Pseudomonas aeruginosa; settings: for MIC: Pseudomonas aeruginosa, BAA2108, read-out: antibacterial activity (MIC) BAA 2108; for antibacterial activity in words, BAA 2108: summary of Table 1
Method: as §1, §2

| Compound | solubility in dimethyl sulfoxide (DMSO) (Solubility in DMSO; at 128 μg/mL) | solubility in dimethyl sulfoxide (DMSO) (Solubility in DMSO; at 256 μg/mL) | MIC [1] | antibacterial activity in words, BAA 2109 [1] | MIC [2] | antibacterial activity in words, PA 9027 [2] | inhibition of PA ETC-driven H+ pumping, in words [3] | Inhibition of the PA electron transport chain IC50 [3] | IC50 [4] | Hill coefficient of dose response fit, DK8/pASH20 vesicles [4] | MIC [5] | antibacterial activity in words, BAA 2108 [5] |
| --- | --- | --- | --- | --- | --- | --- | --- | --- | --- | --- | --- | --- |
| CN(C)Cc1ccc(CNCc2cc3ccccc3nc2SCc2ccccc2)cc1 [Compound 5, 1-(4-((((2-(Benzylthio)quinolin-3-yl)methyl)amino)methyl)phenyl)-N,N-dimethylmethanamine] | very soluble | partially soluble | > 128 µg/mL | inactive | > 128 µg/mL | inactive | some inhibition | 27 µg/mL | 5.38 µM | 1.3 | 64 µg/mL | more potent |
| CSc1nc2ccccc2cc1CNCc1ccc(CN(C)C)cc1 [Compound 4, N,N-Dimethyl-1-(4-((((2-(methylthio)quinolin-3-yl)methyl)amino)methyl)phenyl)methanamine] | very soluble | fully soluble | 256 µg/mL | able to inhibit | > 256 µg/mL | inactive | some inhibition | 29 µg/mL | 86.2 µM and 85.3 µM | 1.0 | 128 to 256 µg/mL | able to inhibit |
